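How tested: cells in 96-well plates exposed to compound for 48 hours at five concentrations. At the GI50, growth is halved.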 Activity calls are given as the source filed them. No stated cut-off is given here; in the data, active = GI50 up to about 1.1 µM and inactive = higher.
Legend:
Assay in all cases: NCI anticancer screen, dose series, 48 h
[1] = test system: U-251
[2] = test system: MDA-MB-435
[3] = test system: ACHN
[4] = test system: PC-3
[5] = test system: DU-145
[6] = test system: SK-MEL-2
[7] = test system: UACC-62
[8] = test system: 786-0
[9] = test system: HT-29
[10] = test system: A498
[11] = test system: RXF 393
[12] = test system: TK-10
[13] = test system: NCI-H23
[14] = test system: SK-MEL-5
[15] = test system: RPMI-8226
[16] = test system: IGROV-1
[17] = test system: Malme-3M
[18] = test system: A549
[19] = test system: NCI-H522
[20] = test system: HCC 2998

Measured: GI50

CN(Cc1cc(Cl)cc(Cl)c1O)Cc1c(O)ccc2ccccc12
inactive: [1] 16.3 µM | [2] 19.1 µM | [3] 17.3 µM | [4] 16.6 µM | [5] 22.3 µM | [6] 19.3 µM | [7] 15.5 µM | [8] 21 µM | [9] 27.9 µM | [10] 17.1 µM | [11] 13.5 µM | [12] 17.1 µM | [13] 18.4 µM | [14] 17.5 µM | [15] 25 µM | [16] 17.3 µM | [17] 14.9 µM | [18] 26 µM | [19] 15 µM

c1ccc2c(c1)nnn2CN1CCOCC1
inactive: [1] > 100 µM | [2] > 100 µM | [3] > 100 µM | [4] > 100 µM | [6] > 100 µM | [7] 58.3 µM | [8] > 100 µM | [9] > 100 µM | [10] > 100 µM | [11] 48.5 µM | [12] > 100 µM | [13] > 100 µM | [14] > 100 µM | [16] 94.4 µM | [17] 41.8 µM | [18] > 100 µM | [19] > 100 µM

Cc1[nH]c2ccccc2c1C1Cc2ccccc2N1C(=O)/C(Cl)=C/c1ccccc1 (stereo not drawn)
inactive: [1] > 100 µM | [3] 98.9 µM | [20] > 100 µM | [6] > 91 µM | [7] > 100 µM | [8] > 100 µM | [9] > 100 µM | [10] > 78.2 µM | [11] 7.83 µM | [12] > 73.3 µM | [13] 48.4 µM | [14] > 100 µM | [15] > 72.6 µM | [16] 61.1 µM | [17] > 86.3 µM | [18] 88.1 µM | [19] > 100 µM

COc1cc(/C=C2\N=C(c3ccccc3)N(/N=C/c3cc4cc(C)ccc4nc3Cl)C2=O)cc(OC)c1OC
inactive: [1] 18.9 µM | [2] 15.8 µM | [3] 34.2 µM | [20] 18.8 µM | [4] 18.1 µM | [5] 30.4 µM | [6] 17.9 µM | [7] 32.1 µM | [8] 60.4 µM | [9] 38.4 µM | [10] 28.1 µM | [12] 37.8 µM | [14] 37.9 µM | [15] 20.5 µM | [16] 33.3 µM | [18] 36.4 µM

Cc1cc(Nc2ccc(/N=N/c3ccc(O)c4ncccc34)cc2)nc(C)n1
inactive: [1] 8.13 µM | [2] 9.29 µM | [3] 8.22 µM | [4] 14.4 µM | [5] 18.2 µM | [6] 13.8 µM | [7] 6.38 µM | [8] 12.6 µM | [9] 31.2 µM | [10] 21.6 µM | [11] 12.7 µM | [12] 17.9 µM | [13] 7.24 µM | [14] 10.8 µM | [15] 5.61 µM | [16] 8.57 µM | [17] 18.6 µM | [18] 9.82 µM | [19] 10.7 µM

NC(CCC(=O)O)(CCC(=O)O)CCC(=O)O
inactive: [1] > 100 µM | [2] > 100 µM | [3] > 100 µM | [4] > 100 µM | [5] > 100 µM | [6] > 100 µM | [7] > 100 µM | [8] > 100 µM | [9] > 100 µM | [11] > 100 µM | [12] > 100 µM | [13] > 100 µM | [14] > 100 µM | [15] > 100 µM | [16] > 100 µM | [17] > 100 µM | [18] > 100 µM | [19] 11.5 µM

CNC(C)(C)Cc1ccc(Cl)cc1
inactive: [1] > 100 µM | [3] > 100 µM | [20] > 100 µM | [6] > 100 µM | [7] > 100 µM | [8] > 100 µM | [9] > 100 µM | [10] > 100 µM | [11] > 100 µM | [12] > 100 µM | [13] > 100 µM | [14] > 100 µM | [15] > 100 µM | [16] > 100 µM | [17] > 100 µM | [18] > 100 µM | [19] > 100 µM

CC(C)C(C(=O)O)N(CC1(O)OCC(O)C(O)C1O)N=O (stereo not drawn)
inactive: [1] > 100 µM | [3] > 100 µM | [20] > 100 µM | [6] > 100 µM | [7] > 100 µM | [8] > 100 µM | [9] > 100 µM | [10] > 100 µM | [11] > 100 µM | [12] > 100 µM | [13] > 100 µM | [14] > 100 µM | [15] > 100 µM | [16] > 100 µM | [17] > 100 µM | [18] > 100 µM | [19] > 100 µM

C#CCOC(=O)C(N)C(C)O (stereo not drawn)
inactive: [1] > 100 µM | [2] > 100 µM | [3] > 100 µM | [4] > 100 µM | [5] > 100 µM | [6] > 100 µM | [7] > 100 µM | [8] > 100 µM | [9] > 100 µM | [10] > 100 µM | [11] > 100 µM | [12] > 100 µM | [13] > 100 µM | [14] > 100 µM | [15] > 100 µM | [16] > 100 µM | [17] > 100 µM | [18] > 100 µM | [19] > 100 µM

[O-][S+](Nc1ccccc1)c1ccc(-c2ccccc2)cc1 (stereo not drawn)
inactive: [1] > 100 µM | [2] > 100 µM | [3] > 100 µM | [20] > 100 µM | [5] > 100 µM | [7] 47.4 µM | [8] > 100 µM | [9] > 100 µM | [12] > 100 µM | [13] > 100 µM | [14] > 100 µM | [15] > 100 µM | [16] > 100 µM | [17] > 100 µM | [18] > 100 µM | [19] > 100 µM

Nc1ncnc2c1ncn2Cc1cccc(CCl)c1
inactive: [1] 13.8 µM | [2] 19.1 µM | [3] 14.8 µM | [4] 14.7 µM | [5] 13.8 µM | [6] 15 µM | [7] 12.8 µM | [8] 14.4 µM | [9] 22.8 µM | [10] 15.2 µM | [11] 3.88 µM | [12] 17 µM | [13] 12.6 µM | [14] 16.1 µM | [15] 5.38 µM | [16] 16.3 µM | [17] 17.9 µM | [18] 21.8 µM | [19] 15.1 µM

O=C(CC(=O)c1cccc2ccccc12)C(=O)Nc1nccs1
inactive: [1] > 100 µM | [3] > 100 µM | [20] > 100 µM | [6] > 100 µM | [7] > 100 µM | [8] > 100 µM | [9] > 100 µM | [10] > 100 µM | [11] > 100 µM | [12] > 100 µM | [13] > 100 µM | [14] > 100 µM | [15] > 100 µM | [16] > 100 µM | [17] > 100 µM | [18] > 100 µM | [19] > 100 µM

CN(C)CC1(C)CC/C(=C\c2ccc3c(c2)OCO3)C1=O (stereo not drawn)
inactive: [1] > 100 µM | [3] > 100 µM | [20] > 100 µM | [6] > 100 µM | [7] 67.3 µM | [8] > 100 µM | [9] > 100 µM | [10] > 100 µM | [11] > 100 µM | [12] > 100 µM | [13] > 100 µM | [14] > 100 µM | [15] 27.5 µM | [16] > 100 µM | [17] > 100 µM | [18] > 100 µM | [19] 39.5 µM

O=C(c1cccnc1)N1N=C(c2ccc3c(c2)OCO3)CC1(O)c1cc(F)c(Cl)cc1Cl (stereo not drawn)
inactive: [1] 16.7 µM | [2] 27 µM | [3] 17.7 µM | [4] 21.5 µM | [5] 20.9 µM | [6] 20.7 µM | [8] 18.6 µM | [9] 17.7 µM | [11] 12.7 µM | [12] 39.1 µM | [13] 24.9 µM | [14] 15 µM | [15] 27.2 µM | [16] 11.4 µM | [17] 23.4 µM | [18] 28.6 µM | [19] 17 µM

O=C(c1cccs1)N(C(=O)N1CCCCC1)c1ccccc1
inactive: [1] > 100 µM | [2] > 100 µM | [3] > 100 µM | [4] 52.1 µM | [5] > 100 µM | [6] > 100 µM | [7] > 100 µM | [8] > 100 µM | [9] > 100 µM | [10] > 100 µM | [11] 35 µM | [12] > 100 µM | [13] > 100 µM | [14] > 100 µM | [15] > 100 µM | [16] > 100 µM | [17] 2.25 µM

O=C(O)c1ccccn1 [2-PICOLINIC ACID]
inactive: [1] > 100 µM | [2] > 100 µM | [3] > 100 µM | [4] > 100 µM | [6] > 100 µM | [7] > 100 µM | [8] > 100 µM | [9] > 100 µM | [10] > 100 µM | [11] > 100 µM | [12] > 100 µM | [13] > 100 µM | [14] > 100 µM | [15] > 100 µM | [16] > 100 µM | [18] > 100 µM

From ChEMBL document CHEMBL1201862, “PubChem BioAssay data set” (2004)
